The values below are quoted from earlier work in patent publication US10329245B2, “Method for making a prenyl group-substituted tyrosine compound” (King Fahd University of Petroleum and Minerals, priority 2015, dated 2019).

The subject of the data set is AGS (human gastric adenocarcinoma) cells. The following applies: AGS cell lines, p<0.01.

Read-outs that look alike come from different tables or passages of the source.

For the compound `CC(=O)N[C@@H](Cc1ccc(O)c(CC=C(C)C)c1)C(=O)O` [compound 1, (S)-2-Acetamido-3-(4-hydroxy-3-(3-methylbut-2-enyl)phenyl)propanoic acid], the “cell viability, % of control levels” value is recorded as 77±7% (75 μM compound 1 combined with 100 ng/mL TRAIL) and 67±5% (150 μM compound 1 combined with 100 ng/mL TRAIL).
